Assay results published in patent publication US20160264593A1 (priority 2013, published 2016).
Read-outs that look alike come from different tables or passages of the source.

Tests used:
[1] = Microsomal stability, dog microsomes; format: in vitro ADME; conditions: relative to verapamil
[2] = day 4, cited from earlier work
[3] = Microsomal stability, monkey microsomes; format: in vitro ADME; conditions: relative to verapamil
[4] = Microsomal stability, human microsomes; format: in vitro ADME; conditions: relative to verapamil
[5] = Microsomal stability, mouse microsomes; format: in vitro ADME; conditions: relative to verapamil
in vivo = conditions: rat, po
[6] = female dogs, day 4, cited from earlier work
U251 human GBM cells = conditions: 100 ip together with radiation, daily for 5 days x 3 courses; 6 months plus follow-up
Description: The mechanism of potentiation is impairment of multiple steps in a DNA-damage repair process and inhibition of exit from mitosis. […] Mice bearing subcutaneous (sc) xenografts of U251 human GBM cells were treated with compound 100 intraperitoneally together with radiation, each given daily for 5 days×3 courses.

[7] = rat, in vivo
[8] = rat, in vivo; remark: listed apart in the source
[9] = Oral administration of 100 and 151 (Discussion): oral bioavailability, plasma and brain levels
[10] = set-up: species or system SD rats; conditions: male, SD, rat, in vivo, iv, 1 mg/kg
Description: 105 was dissolved in 4% NaHCO3 in saline for IV administration. The detailed procedure of dosing solution preparation was presented in Appendix I.
Thirteen (13) animals were placed on the study. The animals in IV arm were free access to food and water. One extra animal was used for blank liver and plasma generation (5 mL per animal). The resulting blank liver and plasma was then applied to the development of bioanalytical method and sample bioanalysis for the entire study.
The IV injection was conducted via foot dorsal vein. Animals were free access to food and water before dose.
The animal is restrained manually. Approximately 150 μL of blood/time point is collected into sodium heparin tube via cardiac puncture for terminal bleeding (anesthetized under carbon dioxide). Blood sample will be put on ice and centrifuged to obtain plasma sample (2000 g, 5 min under 4° C.) within 10 minutes.
The animal will be euthanized with carbon dioxide inhalation. Open abdominal cavity with scissor to expose internal organs. Hold the carcass in an upright position and allow the organs to fall forward. Cut the connective tissues and remove the organs. […]
The PK parameters were determined by non-compartmental model of non-compartmental analysis tool, Pharsight Phoenix WinNonlin® 6.2 software. […]

CN1CCN(C(=O)C2C3CCC(O3)C2C(=O)O)CC1 (stereo not shown) [Compound 100, 3-(4-methylpiperazine-1-carbonyl)-7-oxa-bicyclo[2,2,1]-heptane-2-carboxylic acid]
stability in the presence of microsomes [1]: stable relative to verapamil
Cl ([2]; MALE rats, 0.5 mg/kg): 1.071 L/h/kg
Cl ([2]; MALE rats, 0.75 mg/kg): 1.339 L/h/kg
Cl ([2]; MALE rats, 1.25 mg/kg): 0.945 L/h/kg
% AUC* Extrapolated ([2]; female rats, 0.5 mg/kg): 5.6%
AUC* ([2]; female rats, 0.5 mg/kg): 0.479 µg·h/mL
AUClast ([2]; female rats, 0.5 mg/kg): 0.452 µg·h/mL
Cl ([2]; female rats, 0.5 mg/kg): 1.045 L/h/kg
Co ([2]; female rats, 0.5 mg/kg): 1497 ng/mL
DN AUClast ([2]; female rats, 0.5 mg/kg): 904
SC AUClast ([2]; female rats, 0.5 mg/kg): 0.0177 µg·h/mL
T1/2 ([2]; female rats, 0.5 mg/kg): 15 min
Vz ([2]; female rats, 0.5 mg/kg): 0.378 L/kg
% AUC* Extrapolated ([2]; female rats, 0.75 mg/kg): 27%
AUC* ([2]; female rats, 0.75 mg/kg): 0.949 µg·h/mL
AUClast ([2]; female rats, 0.75 mg/kg): 0.691 µg·h/mL
Cl ([2]; female rats, 0.75 mg/kg): 0.79 L/h/kg
Co ([2]; female rats, 0.75 mg/kg): 2347 ng/mL
DN AUClast ([2]; female rats, 0.75 mg/kg): 921
SC AUClast ([2]; female rats, 0.75 mg/kg): 0.054 µg·h/mL
T1/2 ([2]; female rats, 0.75 mg/kg): 35.4 min
Vz ([2]; female rats, 0.75 mg/kg): 0.677 L/kg
% AUC* Extrapolated ([2]; female rats, 1.25 mg/kg): 17%
AUC* ([2]; female rats, 1.25 mg/kg): 2.853 µg·h/mL
AUClast ([2]; female rats, 1.25 mg/kg): 2.359 µg·h/mL
Cl ([2]; female rats, 1.25 mg/kg): 0.438 L/h/kg
Co ([2]; female rats, 1.25 mg/kg): 3849 ng/mL
DN AUClast ([2]; female rats, 1.25 mg/kg): 1887
SC AUClast ([2]; female rats, 1.25 mg/kg): 0.747 µg·h/mL
T1/2 ([2]; female rats, 1.25 mg/kg): 108 min
Vz ([2]; female rats, 1.25 mg/kg): 1.138 L/kg
stability in the presence of microsomes [3]: stable relative to verapamil
stability in the presence of microsomes [4]: stable relative to verapamil
stability in the presence of microsomes [5]: stable relative to verapamil
bioavailability (in vivo): 1%
AUClast ([6]; 0.15 mg/kg): 0.335 µg·h/mL
Cmax ([6]; 0.15 mg/kg): 0.37 µg/mL
Co ([6]; 0.15 mg/kg): 566 ng/mL
T1/2 ([6]; 0.15 mg/kg): 28.2 min
Tmax ([6]; 0.15 mg/kg): 15 min
AUClast ([6]; 0.30 mg/kg): 1.02 µg·h/mL
Cmax ([6]; 0.30 mg/kg): 0.731 µg/mL
Co ([6]; 0.30 mg/kg): 857 ng/mL
T1/2 ([6]; 0.30 mg/kg): 48.6 min
Tmax ([6]; 0.30 mg/kg): 21 min
AUClast ([6]; 0.50 mg/kg): 2.12 µg·h/mL
Cmax ([6]; 0.50 mg/kg): 1.26 µg/mL
Co ([6]; 0.50 mg/kg): 1930 ng/mL
T1/2 ([6]; 0.50 mg/kg): 72 min
Tmax ([6]; 0.50 mg/kg): 15 min
xenografts eliminated (U251 human GBM cells): 60%
presence in plasma after oral administration (statement) [7]: little is present in plasma
passage of the blood brain barrier (BBB) (statement) [8]: does not readily pass the blood brain barrier

COC(=O)C1C2CCC(O2)C1C(=O)N1CCN(C)CC1 (stereo not shown) [Compound 151]
151 in brain tissue (statement) ([9]; 151 given by mouth to rats): barely detectable in brain tissue
levels of compound 100 in the plasma after 151 (statement) ([9]; 151 given by mouth to rats): substantial levels of compound 100 in the plasma
oral bioavailability ([9]; Discussion): about 60%

O=C(O)C1C2CCC(O2)C1C(=O)O (stereo not shown) [Endothal, 7-oxabicyclo[2.2.1]heptane-2,3-dicarboxylic acid]
AUC(0-t) [10]: 3.152 µg·h/mL
Tmax [10]: 15 min
